From US20170073306A1, “POTENT INHIBITORS OF HUMAN CARBONIC ANHYDRASE II AND BOVINE CARBONIC ANHYDRASE II AND THEIR MECHANISM OF ACTION” (priority 2015, published 2017)

system: not listed separately; assay: MTT cytotoxicity assay; format: cell-based; settings: mouse, 3T3 mouse fibroblast cells, 3T3 cells, 50% growth inhibition, read-out: Cytotoxicity IC50 ± SD
Description: Cytotoxicity studies were performed using a colorimetric assay that measures the reduction of 3-(4,5-dimethythiazol-2-yl)-2,5-diphenyl tetrazolium bromide (MTT) (yellow in color), by mitochondrial enzyme (i.e. succinate dehydrogenase). The MTT enters into the mitochondria of cell, where it is reduced to an insoluble formazan salt (purple in color). The extent of MTT reduction to formazan within cells was measured spectrophotometrically. As reduction of MTT can only occur in metabolically active cells the level of activity is actually a measure of the viability of the cells^22.
Mouse fibroblast cell line 3T3 was cultured in DMEM, supplemented with 5% of FBS, 100 IU/ml of penicillin and 100 μg/ml of streptomycin, and kept at 37° C. in 5% CO2 incubator. For the preparation of cell culture 100 μL/well of cell solution (5×10^4 cells/ml) was added into 96-well plate. The plate was incubated for overnight, and fresh medium was added after the removal of old medium. The test compounds were also added in different concentrations into the plate and plate was again incubated for 48 hrs. After the completion of this incubation period 200 μL MTT (0.5 mg/ml) was added and plate was again incubated for 4 hrs, after this final incubation 100 μL of DMSO was added to each well. The level of MTT reduction to formazan was evaluated by change in absorbance at 540 nm using a micro plate reader (Spectra Max plus, Molecular Devices, CA, USA).

Structure (SMILES) | IC50 at 48 h [µM]
Cc1cccc(C(=O)NC(=S)Nc2ccc(S(N)(=O)=O)cc2)c1 [Compound 10, 3-Methyl-N-(4-sulfamoylphenylcarbamothioyl)benzamide] | > 30
NS(=O)(=O)c1ccc(NC(=S)NC(=O)Cc2ccccc2)cc1 [Compound 8, 2-Phenyl-N-(4-sulfamoylphenylcarbamothioyl)acetamide] | > 30
NS(=O)(=O)c1ccc(NC(=S)NC(=O)c2ccccc2[N+](=O)[O-])cc1 [Compound 7, 2-Nitro-N-(4-sulfamoylphenylcarbamothioyl)benzamide] | > 30
NS(=O)(=O)c1ccc(NC(=S)NC(=O)c2ccc([N+](=O)[O-])cc2Cl)cc1 [Compound 15, 2-Chloro-4-nitro-N-(4-sulfamoylphenylcarbamothioyl)benzamide] | > 30
Cc1ccc(C(=O)NC(=S)Nc2ccc(S(N)(=O)=O)cc2)cc1 [Compound 3, 4-Methyl-N-(4-sulfamoylphenylcarbamothioyl)benzamide] | > 30
NS(=O)(=O)c1ccc(NC(=S)NC(=O)c2ccc(F)cc2)cc1 [Compound 13, 4-Fluoro-N-(4-sulfamoylphenylcarbamothioyl)benzamide] | > 30
CCC(C(=O)NC(=S)Nc1ccc(S(N)(=O)=O)cc1)c1ccccc1 (stereo not shown) [Compound 18, 2-Phenyl-N-(4-sulfamoylphenylcarbamothioyl)butanamide] | > 30
NS(=O)(=O)c1ccc(NC(=S)NC(=O)c2ccc(Cl)cc2)cc1 [Compound 2, 4-Chloro-N-(4-sulfamoylphenylcarbamothioyl)benzamide] | > 30
NS(=O)(=O)c1ccc(NC(=S)NC(=O)c2cccc(Cl)c2)cc1 [Compound 5, 3-Chloro-N-(4-sulfamoylphenylcarbamothioyl)benzamide] | > 30

molecular target: T1, Bovine Carbonic Anhydrase-II (Bos taurus, UniProt P00921); assay: Kinetics studies (Lineweaver-Burk, Dixon plots) against Bovine Carbonic Anhydrase-II; format: biochemical; set-up: Vmax app: unit not given here; settings: Lineweaver-Burk / Dixon plots
T1 construct: pure bovine erythrocyte CA-II; from tissue; host or cells: bovine erythrocytes
T1 sequence (P00921 whole entry): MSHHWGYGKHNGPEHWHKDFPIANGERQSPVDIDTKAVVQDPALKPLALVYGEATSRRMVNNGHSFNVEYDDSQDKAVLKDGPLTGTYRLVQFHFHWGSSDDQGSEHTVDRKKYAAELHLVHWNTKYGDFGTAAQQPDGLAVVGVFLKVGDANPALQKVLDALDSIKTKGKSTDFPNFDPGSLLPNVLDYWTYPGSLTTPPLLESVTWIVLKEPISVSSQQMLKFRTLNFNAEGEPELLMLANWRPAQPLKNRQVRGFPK
Description: FIG. 2B depicts the double reciprocal plot for Ki determination which is between Slope Vs Inhibitor Conc.
FIG. 3B depicts the double reciprocal plot for Ki determination which is between Slope Vs Inhibitor Conc.
Kinetics studies were performed for each analogue. […] The Grafit version 7.0 was used for the construction of Lineveawer-Burk plots and their secondary replots.

Type of Inhibition | Structure (SMILES)
Noncompetitive | Cc1cccc(C(=O)NC(=S)Nc2ccc(S(N)(=O)=O)cc2)c1 [Compound 10, 3-Methyl-N-(4-sulfamoylphenylcarbamothioyl)benzamide]
Mixed type | NS(=O)(=O)c1ccc(NC(=S)NC(=O)Cc2ccccc2)cc1 [Compound 8, 2-Phenyl-N-(4-sulfamoylphenylcarbamothioyl)acetamide]
Mixed type | NS(=O)(=O)c1ccc(NC(=S)NC(=O)c2ccccc2[N+](=O)[O-])cc1 [Compound 7, 2-Nitro-N-(4-sulfamoylphenylcarbamothioyl)benzamide]
Mixed type | Cc1ccc(C(=O)NC(=S)Nc2ccc(S(N)(=O)=O)cc2)cc1 [Compound 3, 4-Methyl-N-(4-sulfamoylphenylcarbamothioyl)benzamide]
Mixed type | CCC(C(=O)NC(=S)Nc1ccc(S(N)(=O)=O)cc1)c1ccccc1 (stereo not shown) [Compound 18, 2-Phenyl-N-(4-sulfamoylphenylcarbamothioyl)butanamide]
Noncompetitive | NS(=O)(=O)c1ccc(NC(=S)NC(=O)c2ccc(Cl)cc2)cc1 [Compound 2, 4-Chloro-N-(4-sulfamoylphenylcarbamothioyl)benzamide]
Noncompetitive | NS(=O)(=O)c1ccc(NC(=S)NC(=O)c2cccc(Cl)c2)cc1 [Compound 5, 3-Chloro-N-(4-sulfamoylphenylcarbamothioyl)benzamide]

same assay, conditions: apparent Vmax with inhibitor (0.2-0.00625 μM)

Vmax app | Structure (SMILES)
10.61 | Cc1cccc(C(=O)NC(=S)Nc2ccc(S(N)(=O)=O)cc2)c1 [Compound 10, 3-Methyl-N-(4-sulfamoylphenylcarbamothioyl)benzamide]
7.77 | NS(=O)(=O)c1ccc(NC(=S)NC(=O)Cc2ccccc2)cc1 [Compound 8, 2-Phenyl-N-(4-sulfamoylphenylcarbamothioyl)acetamide]
19.30 | NS(=O)(=O)c1ccc(NC(=S)NC(=O)c2ccccc2[N+](=O)[O-])cc1 [Compound 7, 2-Nitro-N-(4-sulfamoylphenylcarbamothioyl)benzamide]
52.63 | Cc1ccc(C(=O)NC(=S)Nc2ccc(S(N)(=O)=O)cc2)cc1 [Compound 3, 4-Methyl-N-(4-sulfamoylphenylcarbamothioyl)benzamide]
12.93 | CCC(C(=O)NC(=S)Nc1ccc(S(N)(=O)=O)cc1)c1ccccc1 (stereo not shown) [Compound 18, 2-Phenyl-N-(4-sulfamoylphenylcarbamothioyl)butanamide]
18.45 | NS(=O)(=O)c1ccc(NC(=S)NC(=O)c2ccc(Cl)cc2)cc1 [Compound 2, 4-Chloro-N-(4-sulfamoylphenylcarbamothioyl)benzamide]
25.83 | NS(=O)(=O)c1ccc(NC(=S)NC(=O)c2cccc(Cl)c2)cc1 [Compound 5, 3-Chloro-N-(4-sulfamoylphenylcarbamothioyl)benzamide]

same assay, conditions: enzyme Vmax without inhibitor

Vmax | Structure (SMILES)
62.5 (μM/L/min)^−1 | Cc1cccc(C(=O)NC(=S)Nc2ccc(S(N)(=O)=O)cc2)c1 [Compound 10, 3-Methyl-N-(4-sulfamoylphenylcarbamothioyl)benzamide]
81.30 (μM/L/min)^−1 | NS(=O)(=O)c1ccc(NC(=S)NC(=O)Cc2ccccc2)cc1 [Compound 8, 2-Phenyl-N-(4-sulfamoylphenylcarbamothioyl)acetamide]
71.42 (μM/L/min)^−1 | NS(=O)(=O)c1ccc(NC(=S)NC(=O)c2ccccc2[N+](=O)[O-])cc1 [Compound 7, 2-Nitro-N-(4-sulfamoylphenylcarbamothioyl)benzamide]
80 (μM/L/min)^−1 | Cc1ccc(C(=O)NC(=S)Nc2ccc(S(N)(=O)=O)cc2)cc1 [Compound 3, 4-Methyl-N-(4-sulfamoylphenylcarbamothioyl)benzamide]
42.73 (μM/L/min)^−1 | CCC(C(=O)NC(=S)Nc1ccc(S(N)(=O)=O)cc1)c1ccccc1 (stereo not shown) [Compound 18, 2-Phenyl-N-(4-sulfamoylphenylcarbamothioyl)butanamide]
80 (μM/L/min)^−1 | NS(=O)(=O)c1ccc(NC(=S)NC(=O)c2ccc(Cl)cc2)cc1 [Compound 2, 4-Chloro-N-(4-sulfamoylphenylcarbamothioyl)benzamide]
76.33 (μM/L/min)^−1 | NS(=O)(=O)c1ccc(NC(=S)NC(=O)c2cccc(Cl)c2)cc1 [Compound 5, 3-Chloro-N-(4-sulfamoylphenylcarbamothioyl)benzamide]

same assay, conditions: from secondary replots / Dixon plot; read-out: Ki

Ki [µM] | Structure (SMILES)
0.067 | Cc1cccc(C(=O)NC(=S)Nc2ccc(S(N)(=O)=O)cc2)c1 [Compound 10, 3-Methyl-N-(4-sulfamoylphenylcarbamothioyl)benzamide]
0.035 | NS(=O)(=O)c1ccc(NC(=S)NC(=O)Cc2ccccc2)cc1 [Compound 8, 2-Phenyl-N-(4-sulfamoylphenylcarbamothioyl)acetamide]
0.14 | NS(=O)(=O)c1ccc(NC(=S)NC(=O)c2ccccc2[N+](=O)[O-])cc1 [Compound 7, 2-Nitro-N-(4-sulfamoylphenylcarbamothioyl)benzamide]
0.058 | Cc1ccc(C(=O)NC(=S)Nc2ccc(S(N)(=O)=O)cc2)cc1 [Compound 3, 4-Methyl-N-(4-sulfamoylphenylcarbamothioyl)benzamide]
0.16 | CCC(C(=O)NC(=S)Nc1ccc(S(N)(=O)=O)cc1)c1ccccc1 (stereo not shown) [Compound 18, 2-Phenyl-N-(4-sulfamoylphenylcarbamothioyl)butanamide]
0.11 | NS(=O)(=O)c1ccc(NC(=S)NC(=O)c2ccc(Cl)cc2)cc1 [Compound 2, 4-Chloro-N-(4-sulfamoylphenylcarbamothioyl)benzamide]
0.25 | NS(=O)(=O)c1ccc(NC(=S)NC(=O)c2cccc(Cl)c2)cc1 [Compound 5, 3-Chloro-N-(4-sulfamoylphenylcarbamothioyl)benzamide]

molecular target: T2, Bovine Carbonic Anhydrase-II (bovine erythrocyte CA-II) (Bos taurus, UniProt P00921); assay: Bovine carbonic anhydrase-II inhibition, 4-nitrophenyl acetate spectrophotometric assay; format: biochemical; settings: 4-nitrophenyl acetate 0.7 mM, pH 7.4, 15 min preincubation; read-out: IC50 ± S.E.M. BCA-II
T2 construct: pure bovine erythrocyte CA-II; from tissue; host or cells: bovine erythrocytes
T2 sequence (P00921 whole entry): as above
Description: (§1) Nineteen different analogues of benzamide sulfonamides were evaluated for carbonic anhydrase-II inhibition. The rate of catalyzed reaction was monitored by the amount of product formation by using the chromogenic substrate i.e., 4-nitrophenyl acetate.
4-Nitrophenyl acetate (4-NPA) is a colorless compound which is used as a substrate in carbonic anhydrase inhibition assay. The reaction involves the hydrolysis of 4-nitrophenyl acetate into […] and 4-nitrophenol a yellow colored compound. During this experiment, HEPES-tris buffer was used at 20 mM concentration with pH 7.4.
After 15 min of incubation of the enzyme with the test compound, the substrate was added to initiate the reaction. The reaction was carried out in triplicate with different concentrations of test compounds was used.
In this assay protocol, the reaction was performed by using a 96-well flat bottom plate.
The amount of product formation was measured at 400 nm for 30 min with 1 min interval, multiplate reader SPECTRA max 340 (Molecular Devices, CA, USA) was used to monitor the product formation.
The enzyme inhibitory activities were calculated using the following formula:
% Inhibition=100−(O.D of test/O.D of control)*100
(§2) Where test is the enzyme activity with sample and control is the enzyme activity without sample. The IC50 of the compounds were calculated by using EZ-Fit Enzyme Kinetic Program (Perrella Scientific Inc. Amhrest, U.S.A).

IC50 [µM] | Structure (SMILES)
0.09 ± 0.002 | Cc1cccc(C(=O)NC(=S)Nc2ccc(S(N)(=O)=O)cc2)c1 [Compound 10, 3-Methyl-N-(4-sulfamoylphenylcarbamothioyl)benzamide]
0.07 ± 0.003 | NS(=O)(=O)c1ccc(NC(=S)NC(=O)Cc2ccccc2)cc1 [Compound 8, 2-Phenyl-N-(4-sulfamoylphenylcarbamothioyl)acetamide]
0.06 ± 0.005 | NS(=O)(=O)c1ccc(NC(=S)NC(=O)c2ccccc2[N+](=O)[O-])cc1 [Compound 7, 2-Nitro-N-(4-sulfamoylphenylcarbamothioyl)benzamide]
0.06 ± 0.001 | NS(=O)(=O)c1ccc(NC(=S)NC(=O)c2ccc([N+](=O)[O-])cc2Cl)cc1 [Compound 15, 2-Chloro-4-nitro-N-(4-sulfamoylphenylcarbamothioyl)benzamide]
0.08 ± 0.003 | Cc1ccc(C(=O)NC(=S)Nc2ccc(S(N)(=O)=O)cc2)cc1 [Compound 3, 4-Methyl-N-(4-sulfamoylphenylcarbamothioyl)benzamide]
0.13 ± 0.02 | NS(=O)(=O)c1ccc(NC(=S)NC(=O)c2ccc(F)cc2)cc1 [Compound 13, 4-Fluoro-N-(4-sulfamoylphenylcarbamothioyl)benzamide]
0.2 ± 0.001 | CCC(C(=O)NC(=S)Nc1ccc(S(N)(=O)=O)cc1)c1ccccc1 (stereo not shown) [Compound 18, 2-Phenyl-N-(4-sulfamoylphenylcarbamothioyl)butanamide]
0.16 ± 0.002 | NS(=O)(=O)c1ccc(NC(=S)NC(=O)c2ccc(Cl)cc2)cc1 [Compound 2, 4-Chloro-N-(4-sulfamoylphenylcarbamothioyl)benzamide]
0.14 ± 0.006 | NS(=O)(=O)c1ccc(NC(=S)NC(=O)c2cccc(Cl)c2)cc1 [Compound 5, 3-Chloro-N-(4-sulfamoylphenylcarbamothioyl)benzamide]

molecular target: T3, Human Carbonic Anhydrase-II (human erythrocyte CA-II) (Homo sapiens, UniProt P00918); assay: HCA-II inhibitory activity, 4-nitrophenyl acetate spectrophotometric assay; format: biochemical; settings: 4-nitrophenyl acetate 0.7 mM, pH 7.4, 25° C., 15 min preincubation; read-out: IC50 ± S.E.M. HCA-II
T3 construct: purified human erythrocyte CA-II; from tissue; host or cells: human erythrocytes
Description: as §1
Hydrolysis of 4-NPA (a colorless compound): yields 4-nitrophenol and […]. The reaction is monitored by quantifying the formation of 4-nitrophenol, a yellow colored compound.
In successive experiments, HEPES-tris was used as a buffer for the reaction at final concentration of 20 mM, with 7.4 pH. The total reaction volume of 200 μL includes, 140 μL of the HEPES-tris, 20 μL of test compound diluted in DMSO (20 μL of DMSO as a control sample), 20 μL of purified human erythrocyte CA-II (0.1 mg/mL) prepared in deionized water and 20 μL of a solution of 4-NPA (0.7 mM diluted in ethanol). Adhesion of enzyme with the plastic-ware was avoided by the addition of bovine serum albumin (1 mg/mL).
The 20 μL of test compound was incubated with enzyme for a period of 15 min. The rate of product formation was monitored with the addition of 20 μL substrate prepared in ethanol at a final concentration of 0.7 mM 4-nitrophenyl acetate at 25° C. for a period of 30 min with regular interval of 1 min.
The assay was performed in triplicates by using 96-well flat bottom plate.
The enzyme inhibitory activities were calculated using the following formula: […]
as §2

IC50 [µM] | Structure (SMILES)
0.19 | Cc1cccc(C(=O)NC(=S)Nc2ccc(S(N)(=O)=O)cc2)c1 [Compound 10, 3-Methyl-N-(4-sulfamoylphenylcarbamothioyl)benzamide]
0.16 ± 0.001 | NS(=O)(=O)c1ccc(NC(=S)NC(=O)Cc2ccccc2)cc1 [Compound 8, 2-Phenyl-N-(4-sulfamoylphenylcarbamothioyl)acetamide]
0.12 ± 0.002 | NS(=O)(=O)c1ccc(NC(=S)NC(=O)c2ccccc2[N+](=O)[O-])cc1 [Compound 7, 2-Nitro-N-(4-sulfamoylphenylcarbamothioyl)benzamide]
0.16 ± 0.01 | NS(=O)(=O)c1ccc(NC(=S)NC(=O)c2ccc([N+](=O)[O-])cc2Cl)cc1 [Compound 15, 2-Chloro-4-nitro-N-(4-sulfamoylphenylcarbamothioyl)benzamide]
0.09 ± 0.03 | Cc1ccc(C(=O)NC(=S)Nc2ccc(S(N)(=O)=O)cc2)cc1 [Compound 3, 4-Methyl-N-(4-sulfamoylphenylcarbamothioyl)benzamide]
0.58 ± 0.001 | NS(=O)(=O)c1ccc(NC(=S)NC(=O)c2ccc(F)cc2)cc1 [Compound 13, 4-Fluoro-N-(4-sulfamoylphenylcarbamothioyl)benzamide]
0.25 ± 0.01 | CCC(C(=O)NC(=S)Nc1ccc(S(N)(=O)=O)cc1)c1ccccc1 (stereo not shown) [Compound 18, 2-Phenyl-N-(4-sulfamoylphenylcarbamothioyl)butanamide]
0.21 ± 0.01 | NS(=O)(=O)c1ccc(NC(=S)NC(=O)c2ccc(Cl)cc2)cc1 [Compound 2, 4-Chloro-N-(4-sulfamoylphenylcarbamothioyl)benzamide]
0.28 ± 0.06 | NS(=O)(=O)c1ccc(NC(=S)NC(=O)c2cccc(Cl)c2)cc1 [Compound 5, 3-Chloro-N-(4-sulfamoylphenylcarbamothioyl)benzamide]
